Structures can show the parent of a compound that is named as a salt. Where two headings read alike, the source gives them in different places.
Assays:
[1] = target: T1, SARS-CoV-2 PLpro (nsp3 1564–1878) (Severe acute respiratory syndrome coronavirus 2, UniProt P0DTD1); assay: biochemical; set-up: FRET-quenched peptide (Pro3) cleavage by PLpro, 10 min pre-incubation, slope over 20 min, normalised to no-compound control; conditions: high concentration screen, read-out: % of control remaining
[2] = target: T1, SARS-CoV-2 PLpro (nsp3 1564–1878); assay: biochemical; set-up: FRET-quenched peptide (Pro3) cleavage by PLpro, 10 min pre-incubation, slope over 20 min, normalised to no-compound control; conditions: low concentration screen, read-out: % of control remaining

## COc1cc2ncnc(Nc3ccc(Cl)cc3F)c2cc1OC [4-[(4'-Chloro-2'-fluoro)phenylamino]-6,7-dimethoxyquinazoline hydrochloride]
[1]; Well no.=2540
  remaining activity at 3.75 µM: 98.1%
[2]; Well no.=2540
  remaining activity at 1.25 µM: 96.4%

## C[C@H](N[C@@H](CCc1ccccc1)C(=O)O)C(=O)N1CCC[C@H]1C(=O)O [Enalaprilat]
[1]; Well no.=1900
  remaining activity at 3.75 µM: 93.8%
[1]; Well no.=5968
  remaining activity at 3.75 µM: 98.2%
[2]; Well no.=1900
  remaining activity at 1.25 µM: 95.1%
[2]; Well no.=5968
  remaining activity at 1.25 µM: 99.8%

## O=C(O)c1cn(C2CC2)c2cc(N3C[C@@H]4C[C@H]3CN4)c(F)cc2c1=O [1-cyclopropyl-7-[(1S,4S)-2,5-diazabicyclo[2.2.1]hept-2-yl]-6-fluoro-4-oxo-1,4-dihydro-3-quinolinecarboxylic acid methanesulfonate hydrate]
[1]; Well no.=5598
  remaining activity at 3.75 µM: 86.5%
[2]; Well no.=5598
  remaining activity at 1.25 µM: 91.4%

## N#Cc1cc(NC(=O)C(=O)O)c(Cl)c(NC(=O)C(=O)O)c1 [Lodoxamide]
[1]; Well no.=8241
  remaining activity at 3.75 µM: 105%
[2]; Well no.=8241
  remaining activity at 1.25 µM: 107%

## Oc1ncnc2[nH]ncc12 [Allopurinol]
[1]; Well no.=102
  remaining activity at 3.75 µM: 105%
[1]; Well no.=2077
  remaining activity at 3.75 µM: 104%
[2]; Well no.=102
  remaining activity at 1.25 µM: 106%
[2]; Well no.=2077
  remaining activity at 1.25 µM: 104%

## COc1cc2/c(=N/c3ccc(Br)cc3F)nc[nH]c2cc1OCC1CCN(C)CC1 [Vandetanib]
[1]; Well no.=2799
  remaining activity at 3.75 µM: 101%
[2]; Well no.=2799
  remaining activity at 1.25 µM: 101%

## NC12CC3CC(CC(C3)C1)C2 [Amantadine.HCl]
[1]; Well no.=1653
  remaining activity at 3.75 µM: 97.4%
[2]; Well no.=1653
  remaining activity at 1.25 µM: 97.9%

## O=P(O)(O)C(O)(Cn1ccnc1)P(=O)(O)O [Zoledronic acid]
[1]; Well no.=1881
  remaining activity at 3.75 µM: 97.1%
[1]; Well no.=5578
  remaining activity at 3.75 µM: 98.1%
[2]; Well no.=1881
  remaining activity at 1.25 µM: 100%
[2]; Well no.=5578
  remaining activity at 1.25 µM: 102%

## CCN(CCCCO)C(C)Cc1ccc(O)cc1 (stereo not shown) [O-desmethyl Mebeverine alcohol (hydrochloride)]
[1]; Well no.=8489
  remaining activity at 3.75 µM: 99.4%
[2]; Well no.=8489
  remaining activity at 1.25 µM: 94.7%

## COc1ccc(C2=N[C@H](c3ccc(Cl)cc3)[C@H](c3ccc(Cl)cc3)N2C(=O)N2CCNC(=O)C2)c(OC(C)C)c1 [Nutlin (3b)]
[1]; Well no.=6742
  remaining activity at 3.75 µM: 100%
[2]; Well no.=6742
  remaining activity at 1.25 µM: 100%
[2]; Well no.=8362
  remaining activity at 1.25 µM: 101%

## CCOC(=O)[C@@H](N)CCC(=O)N[C@@H](CSCc1ccccc1)C(=O)N[C@@H](C(=O)OCC)c1ccccc1 [ethyl N5-((R)-3-(benzylthio)-1-(((R)-2-ethoxy-2-oxo-1-phenylethyl)amino)-1-oxopropan-2-yl)-L-glutaminate]
[1]; Well no.=5457
  remaining activity at 3.75 µM: 108%
[2]; Well no.=5457
  remaining activity at 1.25 µM: 105%

## CNCCc1ccc(O)c(O)c1 [N-Methyldopamine hydrochloride]
[1]; Well no.=693
  remaining activity at 3.75 µM: 91.2%
[2]; Well no.=693
  remaining activity at 1.25 µM: 90.9%

## COc1c(C)c2c(c(O)c1C/C=C(\C)CCC(=O)OCCN1CCOCC1)C(=O)OC2 [Mycophenolate mofetil]
[1]; Well no.=1923
  remaining activity at 3.75 µM: 103%
[2]; Well no.=1923
  remaining activity at 1.25 µM: 103%

## Cc1cc(Cn2c(=O)n(Cc3cnc(C)s3)c(=O)c3cc(S(=O)(=O)NC4(C)CC4)ccc32)n(C)n1 [PDD 00017273]
[1]; Well no.=8182
  remaining activity at 3.75 µM: 98.5%
[2]; Well no.=8182
  remaining activity at 1.25 µM: 105%

## CCC1(c2cccc(O)c2)CCCCN(C)C1 (stereo not shown) [Meptazinol HCl]
[1]; Well no.=4636
  remaining activity at 3.75 µM: 90.6%
[2]; Well no.=4636
  remaining activity at 1.25 µM: 93.5%

## O=S(=O)(O)CCSSCCS(=O)(=O)O [Dimesna]
[1]; Well no.=5105
  remaining activity at 3.75 µM: 105%
[2]; Well no.=5105
  remaining activity at 1.25 µM: 104%

## C[C@@H](O)[C@@H]1NC(=O)[C@H](CCCCN)NC(=O)[C@@H](Cc2c[nH]c3ccccc23)NC(=O)[C@H](Cc2ccccc2)NC(=O)[C@@H](NC(=O)[C@H](N)Cc2ccccc2)CSSC[C@@H](C(=O)N[C@H](CO)[C@@H](C)O)NC1=O [Octreotide (acetate)]
[1]; Well no.=6556
  remaining activity at 3.75 µM: 94.1%
[1]; Well no.=7396
  remaining activity at 3.75 µM: 93.2%
[2]; Well no.=6556
  remaining activity at 1.25 µM: 92.6%
[2]; Well no.=7396
  remaining activity at 1.25 µM: 97.5%

## CCCCCCCCCCCCCC(=O)N[C@H](C)[C@@H](O)c1ccccc1 [D-erythro MAPP]
[1]; Well no.=4257
  remaining activity at 3.75 µM: 98.9%
[2]; Well no.=4257
  remaining activity at 1.25 µM: 105%

## CC1CCc2cc(F)cc3c(=O)c(C(=O)O)cn1c23 (stereo not shown) [Flumequine]
[1]; Well no.=5032
  remaining activity at 3.75 µM: 97.6%
[2]; Well no.=5032
  remaining activity at 1.25 µM: 96.8%

## CCCCCN(C)CCC(O)(P(=O)(O)O)P(=O)(O)O [Ibandronate sodium]
[1]; Well no.=5363
  remaining activity at 3.75 µM: 89.7%
[2]; Well no.=5363
  remaining activity at 1.25 µM: 90.7%

## C=C[C@@]1(C)CC(=O)[C@]2(O)[C@@]3(C)[C@@H](O)CCC(C)(C)[C@@H]3[C@H](O)[C@H](OC(C)=O)[C@@]2(C)O1 [Forskolin]
[1]; Well no.=423
  remaining activity at 3.75 µM: 98.9%
[1]; Well no.=3281
  remaining activity at 3.75 µM: 99.2%
[1]; Well no.=8331
  remaining activity at 3.75 µM: 95.4%
[2]; Well no.=423
  remaining activity at 1.25 µM: 99.9%
[2]; Well no.=3281
  remaining activity at 1.25 µM: 99.5%
[2]; Well no.=8331
  remaining activity at 1.25 µM: 98.2%

## C=C1C(=O)[C@]23[C@H](O)[C@H]1CC[C@H]2[C@@]12CO[C@]3(O)[C@@H](O)[C@@H]1C(C)(C)CC[C@@H]2O [Oridonin]
[1]; Well no.=3255
  remaining activity at 3.75 µM: 103%
[2]; Well no.=3255
  remaining activity at 1.25 µM: 101%

## CC(C)C[C@@H](C(=O)N[C@H](C(=O)OC1CCCC1)c1ccccc1)[C@H](O)C(=O)NO [Tosedostat (CHR2797)]
[1]; Well no.=4880
  remaining activity at 3.75 µM: 88.9%
[2]; Well no.=4880
  remaining activity at 1.25 µM: 93.4%

## NCCNC(=O)c1ccc(Cl)cc1 [Ro 16-6491 hydrochloride]
[1]; Well no.=1448
  remaining activity at 3.75 µM: 92.5%
[2]; Well no.=1448
  remaining activity at 1.25 µM: 94.7%

## O=c1ccn([C@@H]2O[C@@]3(CO)CO[C@@H]2[C@@H]3O)c(=O)[nH]1
[1]; Well no.=7864
  remaining activity at 3.75 µM: 92.8%
[2]; Well no.=7864
  remaining activity at 1.25 µM: 98.5%

## CCCc1nc(C)c2c(O)nc(-c3cc(S(=O)(=O)N4CCN(CC)CC4)ccc3OCC)nn12 [Vardenafil HCl Trihydrate]
[1]; Well no.=8292
  remaining activity at 3.75 µM: 94.4%
[2]; Well no.=8292
  remaining activity at 1.25 µM: 101%

## CC(C)Cn1c(=O)n(C)c(=O)c2[nH]cnc21 [3-Isobutyl-1-methylxanthine]
[1]; Well no.=773
  remaining activity at 3.75 µM: 106%
[2]; Well no.=773
  remaining activity at 1.25 µM: 108%

## CCc1cc2c(cc1CC)CC(NC[C@H](O)c1ccc(O)c3[nH]c(=O)ccc13)C2 [Indacaterol Maleate]
[1]; Well no.=5323
  remaining activity at 3.75 µM: 98.4%
[2]; Well no.=5323
  remaining activity at 1.25 µM: 101%

## O=c1[nH]c2ccccc2n1CCN1CCN(c2cccc(C(F)(F)F)c2)CC1 [1-(2-{4-[3-(trifluoromethyl)phenyl]-1-piperazinyl}ethyl)-1,3-dihydro-2H-benzimidazol-2-one]
[1]; Well no.=5866
  remaining activity at 3.75 µM: 97.9%
[2]; Well no.=5866
  remaining activity at 1.25 µM: 103%

## NC(N)=S [Thiourea]
[1]; Well no.=4097
  remaining activity at 3.75 µM: 101%
[2]; Well no.=4097
  remaining activity at 1.25 µM: 98.1%
